Measurements from patent publication US4371534A, “N4-Substituted tetrahydro-1,2,4-oxadiazin-5-one derivatives having anticonvulsive activity and pharmaceutical compositions containing them” (Richter Gedeon Vegyeszeti Gyar RT., priority 1980, dated 1983).
Where two headings read alike, the source gives them in different places.

How the values were obtained:
[1] = tested on: mice (tonic, extensor spasm of the lower limbs); experiment: Maximum electroshock (MES), anticonvulsive activity; assay type: in vivo, CFLP (LATI) mice; conditions: Mus musculus, po, 1 h; 20 mg/kg p.o., one hour after administration; corneal electrode 20 mA, 0.2 sec; absence of tonic extensor spasm = protection
Protocol: The pharmaceutical activity of the new compounds according to the invention was tested by conventional animal tests. Tests were performed on CFLP (LATI) mice of both sexes weighing 18 to 22 g. each, in groups of 10. Test compounds were suspended in a 5% aqueous "Tween 80" solution and the suspension was administered orally, through a probe. When testing anticonvulsive activity 20 mg./kg. doses, while in the tests concerning neurotoxic activity 80 mg/kg. doses were employed. The induced effect was measured one hour after administration by the following methods: (a) Maximum electroshock (MES): According to the method of E. A. Swinyard et al. [J. Pharmacol. 106, 319 (1952)] test animals were shocked by a corneal electrode (20 mA, 0.2 sec.). On the stimulation 100% of the control animals reacted by a tonic, extensor spasm of the lower limbs. Absence of this phenomena was considered a protection due to the treatment.

[2] = tested on: mice (pentetrazole-induced clonic and tonic, extensor spasm); experiment: Inhibition of spasm induced by pentetrazole (PTT); assay type: in vivo, CFLP (LATI) mice; conditions: Mus musculus, po, 1 h, 20 mg/kg p.o., 125 mg/kg pentetrazole s.c., one hour
Protocol: The pharmaceutical activity of the new compounds according to the invention was tested by conventional animal tests. Tests were performed on CFLP (LATI) mice of both sexes weighing 18 to 22 g. each, in groups of 10. Test compounds were suspended in a 5% aqueous "Tween 80" solution and the suspension was administered orally, through a probe. When testing anticonvulsive activity 20 mg./kg. doses, while in the tests concerning neurotoxic activity 80 mg/kg. doses were employed. The induced effect was measured one hour after administration by the following methods: (b) inhibition of spasm induced by pentetrazole (PTT) According to the method of Cr. N. Everett and R. K. Richards [J. Pharmacol. Exp. Therap. 81, 402 (1944)] 125 mg./kg. of pentatrazole (pentamethylene tetrazole) were administrated to the animals subcutaneously. One hour after administration the animals were observed. Absence of the clonic spasm (Kl) and the tonic, extensor spasm of lower limbs (TE) was considered a protection due to the administration of test compounds.

[3] = tested on: mice (muscle coordination); experiment: Neurotoxic activity: muscle coordination (RR) on rotating rod; assay type: in vivo, CFLP (LATI) mice; conditions: 80 mg/kg p.o., one hour after administration; animals falling from rotating rod within 120 seconds, percentage of control animals
Protocol: (§1) The pharmaceutical activity of the new compounds according to the invention was tested by conventional animal tests. Tests were performed on CFLP (LATI) mice of both sexes weighing 18 to 22 g. each, in groups of 10. Test compounds were suspended in a 5% aqueous "Tween 80" solution and the suspension was administered orally, through a probe. When testing anticonvulsive activity 20 mg./kg. doses, while in the tests concerning neurotoxic activity 80 mg/kg. doses were employed. The induced effect was measured one hour after administration by the following methods:
Muscle coordination (RR) on mice
Change of the coordinated muscular movement was tested according to W. J. Kinnard and C. F. Carr [Brit. J. Pharmacol, 121, 354 (1957)], on a rotating rod (diameter: 20 mm., frequency: 12/min.). Normal trained animals are able to remain on the rotating rod for about 120 seconds.

mice = experiment: Acute toxicity (LD50); assay type: in vivo; conditions: p.o., single doses, evaluation after 14 days, probit analysis
Protocol: as §1
Toxicity of the compounds was examined by administration of various single doses. Evaluation was made 14 days after administration. The LD50 -values were calculated on the basis of the number of animals that died in 14 days by probite analysis, by means of a TPA/101 computer.

[4] = absence of clonic spasm, read-out: PTT Cl
[5] = absence of tonic, extensor spasm of lower limbs, read-out: PTT TE

SMILES | responders at 20 mg/kg [1] | responders at 20 mg/kg [2, 4] | responders at 20 mg/kg [2, 5] | RR (muscle incoordination) [3] | LD50 (mice)
CC(=O)N1OCC(=O)N(C)C1c1ccccc1 (centres unmarked) [Example 10] | 40% | 0% | 20% | 20% | –
O=C1NC(=O)C(c2ccccc2)(c2ccccc2)N1 [diphenylhydantoine, reference compound] | 90% | 0% | 80% | 70% | 279 mg/kg
COc1cc(C(=O)OCN2C(=O)CON(C(C)=O)C2c2ccccc2)cc(OC)c1OC (centres unmarked) [Example 19] | 30% | 0% | 0% | 0% | –
CCCCCCN1C(=O)CON(C(C)=O)C1c1ccccc1 (centres unmarked) [Example 14] | 0% | 0% | 40% | 0% | –
CC(=O)N1OCC(=O)N(CO)C1c1ccccc1 (centres unmarked) [Example 5, 2-Acetyl-3-phenyl-4-hydroxymethyl-tetrahydro-1,2,4-oxadiazin-5-one] | 60% | 0% | 40% | 20% | –
CCC1(c2ccccc2)NC(=O)N(C)C1=O (centres unmarked) [3-methyl-5-ethyl-5-phenylhydantoine, reference compound] | 10% | 0% | 50% | 50% | –
CC(=O)N1OCC(=O)N(COC(=O)c2ccccc2)C1c1ccccc1 (centres unmarked) [Example 18] | 40% | 0% | 70% | 40% | –
CCN1C(=O)CON(C(C)=O)C1c1ccccc1 (centres unmarked) [Example 4, 2-Acetyl-3-phenyl-4-ethyl-tetrahydro-1,2,4-oxadiazin-5-one] | 0% | 0% | 20% | 20% | –
CC(=O)OCN1C(=O)CON(C(C)=O)C1c1ccccc1 (centres unmarked) [Example 6, 2-Acetyl-3-phenyl-4-acetoxymethyl-tetrahydro-1,2,4-oxadiazin-5-one] | 70% | 0% | 60% | 40% | –
CC(=O)N1OCC(=O)N(CCl)C1c1ccccc1 (centres unmarked) [Example 7, 2-Acetyl-3-phenyl-4-chloromethyl-tetrahydro-1,2,4-oxadiazin-5-one] | 40% | 0% | 0% | 40% | –
